Literature values as cited in patent publication US12533325B2, “Composition and method for preventing or treating opioid withdrawal symptoms” (priority 2023, dated 2026).

Tested on: heroin-seeking behavior

Structure (SMILES): C=C(C)[C@@H]1CCC(C)=C[C@H]1c1c(O)cc(CCCCC)cc1O [CBD, Cannabidiol]
- heroin-seeking behavior reinstated by a conditional stimulus (cue-induced reinstatement): attenuated heroin-seeking behavior reinstated by a conditional stimulus
- persistence of effect on heroin-seeking behavior after administration (twenty-four hours and two weeks after administration): protracted effect with significance after twenty-four hours and even two weeks after administration
